Values after ≈ are worked out from the molar mass of the structure shown. Where two headings read alike, the source gives them in different places.
Tests used:
in vivo [1] = details: BALB/c, mouse, 100 mg/kg; for AUC(0-inf) / Cmax: po; for AUC(0-inf): AUC0-∞
Experimental: ELF PK was performed in healthy mice (three mice/group) as described previously (Solapure et. al, 2013) after administration of a single oral dose of 100 mg/kg compound formulated in 0.5% HPMC, and 0.1% Tween 80 suspensions. […] Broncho-Alveolar Lavage (BAL) was performed after tracheotomy using 0.7 mL of ice-cold PBS. Urea estimation kit, DIUR-500 (Bio-assay Systems, U.S.A) was used for urea estimation in plasma and BAL samples. Volume of ELF was calculated after normalizing the urea concentration in BAL with that of plasma as described in Marry et. al, 2011. Plasma and BAL samples were stored at −20° C. until analysis using LC-MS/MS.
One mg/mL stock solution of each compound was prepared in Dimethylsulfoxide (DMSO) and diluted two-fold with acetonitrile. A sixteen point calibration curve was utilized for each analyte, and the standard curves ranged from 0.001 to 40 μg/mL. Plasma/BAL samples were precipitated by adding chilled acetonitrile (1:10 v/v) containing carbamazepine as internal standard (250 ng/mL). Samples were vortexed, and centrifuged at 4000 rpm for 30 min at 10° C. The resulting supernatant was mixed with mobile phase (50% acetonitrile in water with 0.1% formic acid). […] of sample was injected on to a liquid chromatographic system (Waters-ACQUTY UPLC) coupled to triple quadrupole mass spectrometer (Waters-ACQUTY-TQD; MS/MS). Samples were acquired in positive ion mode and detected by multiple reaction monitoring (MRM). Concentrations of the analyte were determined from a standard curve obtained by plotting known concentrations of the analyte against peak area ratios (analyte/internal standard peak response).
Volume of ELF in the BAL samples was calculated as volume of BAL multiplied by the ratio of urea concentrations in BAL and plasma as described (Solapure et. al, 2013; Marry et. al, 2011) The compound concentration in ELF was calculated by multiplying concentration in BAL samples by the ratio of BAL volume to the ELF volume. AUC0-∞ in plasma and ELF were calculated by Non-compartmental analysis WinNonlin Phoenix Software (version 6.2; Pharsight, USA). Free plasma AUC was calculated after multiplying concentrations at each time point by the free fraction in plasma. Lung ELF penetration ratio was calculated as a ratio of AUC0-∞ in ELF to free AUC0-∞ in free plasma/total plasma during the same time interval. This ratio, measured in healthy mice after single dose administration, was assumed to remain constant during multiple dose efficacy study in the infected mice. Sparse sample analysis in WinNonlin was used for estimating standard error (SE) associated with AUC estimate.

[2] = infected BALB/c mice, acute efficacy, +ABT
[3] = system: A549 human lung carcinoma cells; format: cell-based; details: human, 72 h
Experimental: The in vitro cytotoxicity of compounds were measured against A549 human lung carcinoma cells as describedin Eakin et. al (2012). Briefly, A549 cells (ATCC) were grown in RPMI medium (GIBCO-BRL) containing 10% heat-inactivated fetal bovine serum (GIBCO-BRL) and 1 mM L-glutamine (GIBCO-BRL) at a density of 1,000 cells/well. After incubation of the cells with compound in a CO2 atmosphere at 37° C. for 72 hours, cell viability was determined following addition of […] of resazurin solution (Sigma), by measuring fluorescence (excitation at 535 nm, emission at 590 nm) using a fluorimeter.

[4] = system: panel of human targets and cardiac channels
[5] = pH 7.4
Experimental: Octanol-water partition coefficient (Log D) based on the shake-flask principle has been measured as follows. The aqueous solution used was 10 mM sodium phosphate buffer pH 7.4. 20 μL of 10 mM compound dissolved in DMSO was taken in glass vial plate. DMSO was removed using GeneVac. 435 μL of octanol was added using Tomtec, stirred for 5 min to dissolve. Further mixing was done by inversion for 5 h at 25° C., subsequently centrifuged for 30 min at 3000 RPM. LC/UV/APPI/MS quantitation of both aqueous and octanol layers was carried out. Log D value was determined according to the following equation.

in vivo [6] = details: BALB/c, mouse, po
[7] = format: in vitro ADME; details: pH 7.4
Experimental: 1 μM compound was incubated with 1 mg/mL of microsomes (Pooled HLM/MLM with 20 mg/ml protein cone.) at 37° C. in 166 μL of buffer (100 mM phosphate buffer, pH-7.4) containing 2 mM NADPH solution. […] The quench plate was centrifuged at 4000 rpm for 15 min. 30 μL of supernatant was diluted to 300 μL with 50% acetonitrile in water and substrate depletion was analyzed using LC-MS/MS.

physchem = format: physicochemical; details: 25 °C, pH 7.4, aqueous buffer, thermodynamic from solid
Experimental: Solubility of the compounds in 0.1M phosphate buffer, pH 7.4 was determined as described, Glyburide was used as QC standard in the assay. Briefly, compounds were diluted in ACN/water (40:60) to desired concentration, samples were dried using Genevac for 4 hrs and subsequently 800 μl of buffer was added. Compound containing plates were stirred for 24 hrs at 25° C. on Eppendorf Thermomix R at 750 rpm. Finally, compound concentration was estimated using UV and MS analysis.

in vivo [8] = details: BALB/c, mouse, po, 50 mg/kg

COc1ncnc(Cn2cc(C(=O)NCCF)c3ncccc32)c1C [Compound 3, N-(2-fluoroethyl)-1-((6-methoxy-5-methylpyrimidin-4-yl)methyl)-1H-pyrrolo[3,2-b]pyridine-3-carboxamide]
Kp (in vivo [1]; ELF penetration ratio (based on free plasma AUC)): 7.29 to 26.1 | Kp (in vivo [1]; ELF penetration ratio (based on total plasma AUC)): 0.6 to 1.97 | AUC(0-inf) (in vivo [1]; ELF): 713 ± 176 µM·h | AUC(0-inf) (in vivo [1]; Plasma): 573 ± 78.8 µM·h | AUC(0-inf) (in vivo [1]; fPlasma): 43.5 ± 5.96 µM·h | Cmax (in vivo [1]; ELF): 74 ± 3.77 µM | Cmax (in vivo [1]; Plasma): 63.8 ± 7.37 µM | Cmax (in vivo [1]; fPlasma): 4.85 ± 0.56 µM | % T > MIC ([2]; multiple oral doses 50 mg/kg): 58% | % fT > MIC ([2]; multiple oral doses 50 mg/kg): 23% | % T > MIC ([2]; multiple oral doses 100 mg/kg): 66% | % fT > MIC ([2]; multiple oral doses 100 mg/kg): 41% | MMIC (A549) [3]: >100 µM | Secondary pharmacology hits IC50 [4]: No significant hits | in vitro safety profiling [4]: no major safety liabilities | logD [5]: 2.1 | AUC (in vivo [6]): 200 to 700 µM·h | AUC(0-inf) (in vivo [6]; 30 mg/kg): 252 ± 64 µM·h | Cmax (in vivo [6]; 30 mg/kg): 32.8 ± 14.4 µM | half-life (in vivo [6]; 30 mg/kg): 4.46 ± 0.16 h | Human CLpred microsomes (% LBF) [7]: 10.4 % LBF | solubility at 24 h (physchem): 8 µM (≈ 2.75 µg/mL) | AUC(0-inf) (in vivo [8]): 106 ± 3.04 µM·h | Cmax (in vivo [8]): 17.8 ± 5.61 µM | Tmax (in vivo [8]): 4.33 ± 1.15 h | half-life (in vivo [8]): 2.38 ± 0.19 h

From patent publication US9163020B2, “Azaindole compounds, synthesis thereof, and methods of using the same” (Global Alliance for TB Drug Development, priority 2013, dated 2015)
